In assay [1] the test system is isolated rabbit urinary bladder. Kind of assay: Relaxation effect on potassium-induced contraction of isolated rabbit urinary bladder. The settings on record: Oryctolagus cuniculus, read-out: IC50 value (50% relaxation concentration). It is filed as cell-based. The procedure:
Relaxation Effect on Potassium-Induced Contraction of Isolated Rabbit Urinary Bladder
Urinary bladder was isolated from Male NZW rabbits (body weight: 2.0-3.5 kg) and immersed in ice-cold Krebs-bicarbonate solution (in mM: 118 NaCl, 4.7 KCl, 2.55 CaCl2, 1.18 MgSO4, 1.18 KH2PO4, 24.88 NaHCO3 and 11.1 glucose). The urinary bladder was cut into longitudinal strips (5 mm length 3-4 mm width) after mucosal layer was removed.
Preparations were mounted in organ baths containing 10 ml of Krebs solution maintained at 37° C. and gassed with 95% O2/5% CO2. Accordingly, preparations were stretched with an initial tension of 2.0±1.0 g, and changes in isometric tension were measured by force-displacement transducer. The preparations were pre-contracted by changing organ-bath solution into high-K^+ (30 mM) Krebs solution (in mM: 118 NaCl, […], 2.55 CaCl2, 1.18 MgSO4, 1.18 KH2PO4, 24.88 NaHCO3 and 11.1 glucose).
After stable tension was obtained, compounds were added into organ baths cumulatively (10^−8 M-10^−4 M). The effects of compounds were expressed as a percentage of the maximum relaxation produced by 10^−4 M papaverine as 100%. 50% relaxation concentration (IC50) was calculated and IC50 value range (μM) of compounds of the present invention was shown in the following Table 1 with a rank of A, B or C. These ranges are as mentioned below. • 3 μM≧C>1 μM≧B>0.5 μM≧A

The test system of assay [2] is rhythmic bladder contractions induced by substance P. Nature of the assay: Inhibitory effect on the rhythmic bladder contractions induced by substance P in anesthetized rats. In kind it is in vivo, rat. The settings on record: 0.25 mg/kg intravenous; time during which frequency of rhythmic contraction was completely inhibited; urethane-anesthetized Sprague-Dawley female rats. The procedure: Inhibitory Effect on the Rhythmic Bladder Contractions Induced by Substance P in Anesthetized Rats For the experiments, Sprague-Dawley female rats (9 to 12 weeks old) weighing between 200 to 300 g were used. After urethane anesthetization (subcutaneously administered with a dose of 1.2 g/kg), cannulae were placed in both right and left femoral veins. One intravenous catheter was used for administration of compounds, and the other was for the substance P (0.33 μg/kg/min) infusion. We also cannulated into ureter to pass urine. Polyethylene catheters were inserted into carotid artery for continuous monitoring of arterial blood pressure and heart rate. For continuous infusion, transurethral bladder catheter was inserted into the bladder through the urethra and tied in place by a ligature around the urethral orifice. One end of the catheter was attached to a pressure transducer in order to measure intravesical pressure. The other end of the catheter was used for infusion of saline into the bladder. After stabilization of blood pressure and heart rate and after the bladder was emptied, cystometry was performed by filling the bladder slowly with about 0.6 ml of saline. After about 10 minutes, intravenous infusion of substance P (0.33 μg/kg/min) was started for stabilization of the micturition reflex. […]

Where only a bound is given, the exact number is not on record here.

With `O=C([O-])Cc1oc(-c2ccccc2)cc1-c1ccc(Cl)s1.[Na+]` [2 (Compound 6)], the IC50 in assay [1] is less than 0.5 µM. The 100% inhibiting time in assay [2] came to 13.1 min.

On to `O=C([O-])Cc1sc(-c2ccccc2)cc1-c1ccc(Cl)s1.[Na+]` [3 (Compound 6)], for which, in assay [1], the IC50 lay within 0.5 to 1 µM. This compound also had a 100% inhibiting time in assay [2] of 27.1 min.

Source of the values: patent publication US7531655B2, “Large conductance calcium-activated K channel opener” (Mitsubishi Tanabe Pharma Corporation, priority 2002, dated 2009).
